Test results from ChEMBL document CHEMBL4382269, “Discovery of Potent, Efficient, and Selective Inhibitors of Phosphoinositide 3-Kinase δ through a Deconstruction and Regrowth Approach” (J Med Chem, 2018).
≈ marks a conversion by molar mass, not a printed value.

Key:
[1] = target: Phosphatidylinositol 4,5-bisphosphate 3-kinase catalytic subunit gamma isoform (Homo sapiens, UniProt P48736); experiment: Inhibition of PI3Kgamma (unknown origin) using PIP2 as substrate preincubated for 15 mins followed by substrate addition measured after 60 mins by HTRF method
Chain of Phosphatidylinositol 4,5-bisphosphate 3-kinase catalytic subunit gamma isoform (P48736 whole entry, canonical isoform): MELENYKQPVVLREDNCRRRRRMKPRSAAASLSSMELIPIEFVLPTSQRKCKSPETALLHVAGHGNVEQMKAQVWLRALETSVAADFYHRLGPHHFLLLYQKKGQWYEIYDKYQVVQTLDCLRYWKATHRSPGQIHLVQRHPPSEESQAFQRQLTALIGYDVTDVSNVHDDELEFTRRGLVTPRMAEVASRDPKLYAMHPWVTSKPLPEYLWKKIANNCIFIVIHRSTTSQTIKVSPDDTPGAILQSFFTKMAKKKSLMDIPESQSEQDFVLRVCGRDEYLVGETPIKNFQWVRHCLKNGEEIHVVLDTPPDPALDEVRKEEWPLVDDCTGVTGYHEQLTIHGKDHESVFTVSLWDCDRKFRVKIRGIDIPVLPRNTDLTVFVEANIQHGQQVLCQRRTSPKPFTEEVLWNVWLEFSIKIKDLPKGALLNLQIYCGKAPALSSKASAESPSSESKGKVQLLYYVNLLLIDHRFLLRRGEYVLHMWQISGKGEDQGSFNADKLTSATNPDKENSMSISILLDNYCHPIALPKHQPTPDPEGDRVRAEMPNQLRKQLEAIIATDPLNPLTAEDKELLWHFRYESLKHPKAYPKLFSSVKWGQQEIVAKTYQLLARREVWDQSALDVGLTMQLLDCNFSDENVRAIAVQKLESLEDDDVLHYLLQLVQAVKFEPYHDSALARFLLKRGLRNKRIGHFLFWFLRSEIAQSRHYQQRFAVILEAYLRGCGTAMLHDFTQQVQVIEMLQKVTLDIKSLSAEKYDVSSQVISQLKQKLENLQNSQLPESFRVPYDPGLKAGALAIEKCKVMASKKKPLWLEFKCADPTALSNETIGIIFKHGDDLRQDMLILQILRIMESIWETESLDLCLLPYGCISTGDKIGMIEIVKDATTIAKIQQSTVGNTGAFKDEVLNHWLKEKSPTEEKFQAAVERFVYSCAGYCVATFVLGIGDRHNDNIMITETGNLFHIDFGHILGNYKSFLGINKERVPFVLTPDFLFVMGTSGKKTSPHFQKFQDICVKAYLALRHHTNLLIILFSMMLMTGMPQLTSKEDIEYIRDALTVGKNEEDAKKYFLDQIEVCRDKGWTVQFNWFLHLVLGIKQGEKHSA

[2] = target: Phosphatidylinositol 4,5-bisphosphate 3-kinase catalytic subunit beta isoform (Homo sapiens, UniProt P42338); experiment: Inhibition of PI3Kbeta (unknown origin) using PIP2 as substrate preincubated for 15 mins followed by substrate addition measured after 60 mins by HTRF method
Chain of Phosphatidylinositol 4,5-bisphosphate 3-kinase catalytic subunit beta isoform (P42338 whole entry, canonical isoform): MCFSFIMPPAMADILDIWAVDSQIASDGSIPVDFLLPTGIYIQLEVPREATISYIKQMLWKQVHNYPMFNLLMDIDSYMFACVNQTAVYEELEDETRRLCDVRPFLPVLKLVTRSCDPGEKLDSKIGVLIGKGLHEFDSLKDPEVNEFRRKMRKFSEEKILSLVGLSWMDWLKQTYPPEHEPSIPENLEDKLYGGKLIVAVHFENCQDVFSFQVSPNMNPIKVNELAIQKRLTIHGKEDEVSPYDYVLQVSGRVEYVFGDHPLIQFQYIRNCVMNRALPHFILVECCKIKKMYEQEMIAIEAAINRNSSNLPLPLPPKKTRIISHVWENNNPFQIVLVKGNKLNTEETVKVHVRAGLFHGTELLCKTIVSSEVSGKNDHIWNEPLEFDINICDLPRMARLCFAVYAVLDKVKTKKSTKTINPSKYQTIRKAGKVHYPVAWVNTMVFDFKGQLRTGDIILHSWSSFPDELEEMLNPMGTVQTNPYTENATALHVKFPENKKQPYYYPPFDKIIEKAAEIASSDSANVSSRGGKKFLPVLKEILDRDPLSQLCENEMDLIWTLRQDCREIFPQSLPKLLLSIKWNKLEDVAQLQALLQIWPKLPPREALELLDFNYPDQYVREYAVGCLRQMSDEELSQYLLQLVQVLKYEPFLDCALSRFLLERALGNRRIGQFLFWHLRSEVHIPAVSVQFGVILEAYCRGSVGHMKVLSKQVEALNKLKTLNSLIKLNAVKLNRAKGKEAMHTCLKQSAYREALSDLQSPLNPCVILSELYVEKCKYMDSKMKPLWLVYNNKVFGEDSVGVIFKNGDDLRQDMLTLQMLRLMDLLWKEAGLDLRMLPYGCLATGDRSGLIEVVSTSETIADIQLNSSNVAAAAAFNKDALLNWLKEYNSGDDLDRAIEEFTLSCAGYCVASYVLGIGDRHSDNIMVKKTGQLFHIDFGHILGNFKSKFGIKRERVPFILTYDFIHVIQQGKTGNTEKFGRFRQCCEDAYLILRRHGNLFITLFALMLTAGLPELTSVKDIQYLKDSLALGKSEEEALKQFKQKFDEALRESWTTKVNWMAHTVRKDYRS

[3] = target: T1, Phosphatidylinositol 4,5-bisphosphate 3-kinase catalytic subunit delta isoform (Homo sapiens, UniProt O00329); experiment: Inhibition of PI3Kdelta (unknown origin) using PIP2 as substrate preincubated for 15 mins followed by substrate addition measured after 60 mins by HTRF method
T1 sequence (O00329 whole entry): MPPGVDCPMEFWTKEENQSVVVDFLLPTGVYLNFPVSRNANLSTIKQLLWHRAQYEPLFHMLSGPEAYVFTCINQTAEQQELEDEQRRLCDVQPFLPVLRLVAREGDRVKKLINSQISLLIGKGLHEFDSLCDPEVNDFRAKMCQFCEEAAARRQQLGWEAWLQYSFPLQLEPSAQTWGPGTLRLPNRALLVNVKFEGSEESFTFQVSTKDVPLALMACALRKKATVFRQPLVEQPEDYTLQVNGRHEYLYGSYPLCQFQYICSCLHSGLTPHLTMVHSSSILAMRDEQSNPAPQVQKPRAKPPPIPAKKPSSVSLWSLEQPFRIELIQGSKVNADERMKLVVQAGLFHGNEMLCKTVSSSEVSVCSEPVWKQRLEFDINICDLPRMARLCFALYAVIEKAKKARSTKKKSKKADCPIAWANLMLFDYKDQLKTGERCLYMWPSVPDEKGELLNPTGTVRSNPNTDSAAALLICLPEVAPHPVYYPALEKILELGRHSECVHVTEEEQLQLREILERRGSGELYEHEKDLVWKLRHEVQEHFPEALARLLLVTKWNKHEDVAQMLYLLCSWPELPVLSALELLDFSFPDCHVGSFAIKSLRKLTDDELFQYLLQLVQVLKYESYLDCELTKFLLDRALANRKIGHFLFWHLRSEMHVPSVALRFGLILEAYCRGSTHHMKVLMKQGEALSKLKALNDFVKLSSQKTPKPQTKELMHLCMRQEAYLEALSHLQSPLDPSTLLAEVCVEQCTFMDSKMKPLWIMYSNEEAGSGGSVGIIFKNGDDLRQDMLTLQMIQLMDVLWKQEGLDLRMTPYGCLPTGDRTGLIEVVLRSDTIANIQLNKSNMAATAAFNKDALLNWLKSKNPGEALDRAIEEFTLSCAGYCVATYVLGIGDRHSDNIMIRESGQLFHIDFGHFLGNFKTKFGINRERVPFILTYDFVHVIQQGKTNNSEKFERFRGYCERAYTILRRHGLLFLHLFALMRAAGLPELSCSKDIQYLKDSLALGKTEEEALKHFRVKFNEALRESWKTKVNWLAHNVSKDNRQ

[4] = target: Phosphatidylinositol 4,5-bisphosphate 3-kinase catalytic subunit alpha isoform (Homo sapiens, UniProt P42336); experiment: Inhibition of PI3Kalpha (unknown origin) using PIP2 as substrate preincubated for 15 mins followed by substrate addition measured after 60 mins by HTRF method
Chain of Phosphatidylinositol 4,5-bisphosphate 3-kinase catalytic subunit alpha isoform (P42336 whole entry, canonical isoform): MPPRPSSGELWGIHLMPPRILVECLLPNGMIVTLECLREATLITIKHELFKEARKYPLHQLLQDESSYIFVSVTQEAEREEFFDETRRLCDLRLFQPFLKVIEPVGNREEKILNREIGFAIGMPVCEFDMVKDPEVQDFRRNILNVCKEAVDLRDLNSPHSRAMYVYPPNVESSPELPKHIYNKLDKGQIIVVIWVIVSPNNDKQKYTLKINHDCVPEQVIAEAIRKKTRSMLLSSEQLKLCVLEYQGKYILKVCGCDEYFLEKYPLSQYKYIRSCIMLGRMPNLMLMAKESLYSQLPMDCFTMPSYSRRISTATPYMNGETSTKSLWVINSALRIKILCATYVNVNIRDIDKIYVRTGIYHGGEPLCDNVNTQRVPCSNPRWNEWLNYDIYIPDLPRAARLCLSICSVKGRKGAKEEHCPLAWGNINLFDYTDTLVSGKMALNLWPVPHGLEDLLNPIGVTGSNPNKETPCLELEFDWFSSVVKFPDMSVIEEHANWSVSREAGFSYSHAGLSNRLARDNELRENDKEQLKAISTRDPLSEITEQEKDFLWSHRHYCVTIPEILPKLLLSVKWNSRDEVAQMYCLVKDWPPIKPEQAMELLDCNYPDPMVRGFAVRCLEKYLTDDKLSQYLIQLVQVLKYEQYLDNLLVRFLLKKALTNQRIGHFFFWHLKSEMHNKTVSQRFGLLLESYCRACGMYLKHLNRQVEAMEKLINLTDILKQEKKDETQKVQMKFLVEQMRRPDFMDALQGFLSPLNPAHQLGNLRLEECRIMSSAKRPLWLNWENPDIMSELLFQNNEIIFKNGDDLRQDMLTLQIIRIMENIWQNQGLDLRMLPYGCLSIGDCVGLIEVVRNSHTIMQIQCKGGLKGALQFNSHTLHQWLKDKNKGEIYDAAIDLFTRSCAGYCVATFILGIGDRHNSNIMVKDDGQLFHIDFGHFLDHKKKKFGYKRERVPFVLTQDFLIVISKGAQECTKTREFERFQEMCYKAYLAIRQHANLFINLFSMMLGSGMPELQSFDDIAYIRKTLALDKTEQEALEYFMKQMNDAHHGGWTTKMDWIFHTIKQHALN

Homo sapiens [5] = organism: Homo sapiens; experiment: Selectivity ratio of IC50 for PI3Kbeta (unknown origin) to IC50 for PI3Kdelta (unknown origin)
Homo sapiens [6] = organism: Homo sapiens; experiment: Selectivity ratio of IC50 for DAG zeta (unknown origin) to IC50 for PI3Kdelta (unknown origin)
Homo sapiens [7] = organism: Homo sapiens; experiment: Selectivity ratio of IC50 for ITK (unknown origin) to IC50 for PI3Kdelta (unknown origin)
Homo sapiens [8] = organism: Homo sapiens; experiment: Selectivity ratio of IC50 for CHKB (unknown origin) to IC50 for PI3Kdelta (unknown origin)
PBMC = experiment: Inhibition of cytostim stimulated IFNgamma production in human PBMC […] by electrochemiluminescence assay; format: functional, cell-based
Homo sapiens [9] = organism: Homo sapiens; experiment: Selectivity ratio of IC50 for SPHK2 (unknown origin) to IC50 for PI3Kdelta (unknown origin)
Homo sapiens [10] = organism: Homo sapiens; experiment: Selectivity ratio of IC50 for PI4KA (unknown origin) to IC50 for PI3Kdelta (unknown origin)
Homo sapiens [11] = organism: Homo sapiens; experiment: Selectivity ratio of IC50 for BTK (unknown origin) to IC50 for PI3Kdelta (unknown origin)
Homo sapiens [12] = organism: Homo sapiens; experiment: Selectivity ratio of IC50 for Aurora B (unknown origin) to IC50 for PI3Kdelta (unknown origin)
Homo sapiens [13] = organism: Homo sapiens; experiment: Selectivity ratio of IC50 for ASK1 (unknown origin) to IC50 for PI3Kdelta (unknown origin)
Homo sapiens [14] = organism: Homo sapiens; experiment: Selectivity ratio of IC50 for EGFR (unknown origin) to IC50 for PI3Kdelta (unknown origin)
Homo sapiens [15] = organism: Homo sapiens; experiment: Selectivity ratio of IC50 for JAK3 (unknown origin) to IC50 for PI3Kdelta (unknown origin)
Homo sapiens [16] = organism: Homo sapiens; experiment: Selectivity ratio of IC50 for PIK3C3/PIK3R4 (unknown origin) to IC50 for PI3Kdelta (unknown origin)
Homo sapiens [17] = organism: Homo sapiens; experiment: Selectivity ratio of IC50 for PIP4K2A (unknown origin) to IC50 for PI3Kdelta (unknown origin)
Homo sapiens [18] = organism: Homo sapiens; experiment: Selectivity ratio of IC50 for DAG gamma (unknown origin) to IC50 for PI3Kdelta (unknown origin)
Homo sapiens [19] = organism: Homo sapiens; experiment: Selectivity ratio of IC50 for PI4KB (unknown origin) to IC50 for PI3Kdelta (unknown origin)
Homo sapiens [20] = organism: Homo sapiens; experiment: Selectivity ratio of IC50 for JAK2 (unknown origin) to IC50 for PI3Kdelta (unknown origin)
Homo sapiens [21] = organism: Homo sapiens; experiment: Selectivity ratio of IC50 for LRRK2 (unknown origin) to IC50 for PI3Kdelta (unknown origin)
Homo sapiens [22] = organism: Homo sapiens; experiment: Selectivity ratio of IC50 for IKK1 (unknown origin) to IC50 for PI3Kdelta (unknown origin)
Homo sapiens [23] = organism: Homo sapiens; experiment: Selectivity ratio of IC50 for CHKA (unknown origin) to IC50 for PI3Kdelta (unknown origin)
serum albumin = serum albumin (Homo sapiens, UniProt P02768); experiment: Binding affinity to human serum albumin by HPLC analysis; format: ADME; details: read-out: PB (converted)
Chain of serum albumin (P02768 whole entry): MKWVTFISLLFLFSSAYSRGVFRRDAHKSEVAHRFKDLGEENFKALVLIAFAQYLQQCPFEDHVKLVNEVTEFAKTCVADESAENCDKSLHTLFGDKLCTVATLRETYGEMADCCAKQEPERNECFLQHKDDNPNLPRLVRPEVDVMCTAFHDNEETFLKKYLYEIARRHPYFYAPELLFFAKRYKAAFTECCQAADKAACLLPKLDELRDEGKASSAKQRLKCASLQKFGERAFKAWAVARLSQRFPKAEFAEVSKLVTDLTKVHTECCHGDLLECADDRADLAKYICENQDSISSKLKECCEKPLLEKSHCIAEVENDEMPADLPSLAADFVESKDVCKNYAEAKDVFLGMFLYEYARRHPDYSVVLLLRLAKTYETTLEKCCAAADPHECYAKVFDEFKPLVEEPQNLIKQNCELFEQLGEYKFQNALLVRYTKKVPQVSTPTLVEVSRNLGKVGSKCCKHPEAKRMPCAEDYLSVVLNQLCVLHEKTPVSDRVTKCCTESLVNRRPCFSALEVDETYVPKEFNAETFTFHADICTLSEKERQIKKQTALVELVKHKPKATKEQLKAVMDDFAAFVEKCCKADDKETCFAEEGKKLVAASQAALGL

[24] = Clearance in human microsomes at 0.5 uM in presence of NADPH measured up to 30 mins by LC-MS/MS analysis; format: ADME, Microsome; details: 0.5 h
Homo sapiens [25] = organism: Homo sapiens; experiment: Selectivity ratio of IC50 for mTOR (unknown origin) to IC50 for PI3Kdelta (unknown origin)
Homo sapiens [26] = organism: Homo sapiens; experiment: Selectivity ratio of IC50 for JNK1 (unknown origin) to IC50 for PI3Kdelta (unknown origin)
Homo sapiens [27] = organism: Homo sapiens; experiment: Selectivity ratio of IC50 for LCK (unknown origin) to IC50 for PI3Kdelta (unknown origin)
Homo sapiens [28] = organism: Homo sapiens; experiment: Selectivity ratio of IC50 for SYK (unknown origin) to IC50 for PI3Kdelta (unknown origin)
Homo sapiens [29] = organism: Homo sapiens; experiment: Selectivity ratio of IC50 for PIK3C2B (unknown origin) to IC50 for PI3Kdelta (unknown origin)
Homo sapiens [30] = organism: Homo sapiens; experiment: Selectivity ratio of IC50 for p38alpha (unknown origin) to IC50 for PI3Kdelta (unknown origin)
Homo sapiens [31] = organism: Homo sapiens; experiment: Selectivity ratio of IC50 for DAG beta (unknown origin) to IC50 for PI3Kdelta (unknown origin)
Homo sapiens [32] = organism: Homo sapiens; experiment: Selectivity ratio of IC50 for PI3Kalpha (unknown origin) to IC50 for PI3Kdelta (unknown origin)
[33] = Kinetic solubility of the compound in phosphate buffer saline at pH 7.4 after 1 hr by CLND method; format: physicochemical; details: phosphate buffered saline, read-out: Kinetic_solubility
Homo sapiens [34] = organism: Homo sapiens; experiment: Selectivity ratio of IC50 for IKK2 (unknown origin) to IC50 for PI3Kdelta (unknown origin)
[35] = target: Voltage-gated inwardly rectifying potassium channel KCNH2 (Homo sapiens, UniProt Q12809); experiment: Inhibition of human ERG expressed in CHO cells after 75 mins by fluorescence polarization assay
Chain of Voltage-gated inwardly rectifying potassium channel KCNH2 (Q12809 whole entry): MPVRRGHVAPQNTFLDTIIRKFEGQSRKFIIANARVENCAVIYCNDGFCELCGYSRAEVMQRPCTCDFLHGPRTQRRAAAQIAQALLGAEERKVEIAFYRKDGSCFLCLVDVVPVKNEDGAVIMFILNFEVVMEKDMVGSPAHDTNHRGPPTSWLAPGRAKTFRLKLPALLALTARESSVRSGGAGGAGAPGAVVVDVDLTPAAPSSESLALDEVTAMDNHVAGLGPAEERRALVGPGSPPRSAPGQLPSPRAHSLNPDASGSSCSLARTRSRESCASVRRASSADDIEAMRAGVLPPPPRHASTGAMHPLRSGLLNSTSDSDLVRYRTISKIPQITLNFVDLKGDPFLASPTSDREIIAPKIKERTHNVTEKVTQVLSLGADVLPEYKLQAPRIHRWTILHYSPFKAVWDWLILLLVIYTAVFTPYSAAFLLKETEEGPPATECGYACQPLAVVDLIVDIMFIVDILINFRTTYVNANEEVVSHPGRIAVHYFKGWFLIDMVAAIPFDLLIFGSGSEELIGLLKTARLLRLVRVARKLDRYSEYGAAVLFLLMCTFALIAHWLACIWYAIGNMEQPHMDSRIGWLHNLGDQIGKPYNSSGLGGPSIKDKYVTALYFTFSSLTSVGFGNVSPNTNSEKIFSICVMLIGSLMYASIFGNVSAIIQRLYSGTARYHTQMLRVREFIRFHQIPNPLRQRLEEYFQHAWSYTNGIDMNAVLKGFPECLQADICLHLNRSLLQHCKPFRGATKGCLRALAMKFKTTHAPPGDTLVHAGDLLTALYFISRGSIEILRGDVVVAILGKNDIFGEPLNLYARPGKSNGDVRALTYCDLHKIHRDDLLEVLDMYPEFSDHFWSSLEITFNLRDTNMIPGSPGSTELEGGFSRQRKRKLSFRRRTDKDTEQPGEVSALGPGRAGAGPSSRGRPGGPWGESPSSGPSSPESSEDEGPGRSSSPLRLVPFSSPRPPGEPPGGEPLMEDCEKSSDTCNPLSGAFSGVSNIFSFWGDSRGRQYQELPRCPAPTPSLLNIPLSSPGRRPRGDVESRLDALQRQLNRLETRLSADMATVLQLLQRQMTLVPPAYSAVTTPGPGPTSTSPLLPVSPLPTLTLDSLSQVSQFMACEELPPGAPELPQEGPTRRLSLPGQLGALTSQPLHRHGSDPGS

Homo sapiens [36] = organism: Homo sapiens; experiment: Selectivity ratio of IC50 for PI3Kgamma (unknown origin) to IC50 for PI3Kdelta (unknown origin)
Homo sapiens [37] = organism: Homo sapiens; experiment: Selectivity ratio of IC50 for ROCK (unknown origin) to IC50 for PI3Kdelta (unknown origin)
[38] = Clearance in rat microsomes at 0.5 uM in presence of NADPH measured up to 30 mins by LC-MS/MS analysis; format: ADME, Microsome; details: 0.5 h
Homo sapiens [39] = organism: Homo sapiens; experiment: Selectivity ratio of IC50 for DNA-PK (unknown origin) to IC50 for PI3Kdelta (unknown origin)
Homo sapiens [40] = organism: Homo sapiens; experiment: Selectivity ratio of IC50 for SPHK1 (unknown origin) to IC50 for PI3Kdelta (unknown origin)

With `c1cc(-c2ccc3cn[nH]c3c2)c2cc[nH]c2c1` the IC50 [1] was over 158000 nM, the IC50 [2] was 25100 nM and the IC50 [3] was 7940 nM. For the same compound, the IC50 [4] was over 158000 nM.
`COc1ncc(-c2cc(-c3ncc(CN4C[C@@H](C)O[C@@H](C)C4)o3)c3cn[nH]c3c2)cc1NS(C)(=O)=O` gave an IC50 [1] of 316 nM, an IC50 [2] of 2510 nM and an IC50 [4] of 398 nM.
For `CS(=O)(=O)Nc1cc(-c2ccc3ccncc3c2)cnc1Cl`, the IC50 [1] was 794 nM, the IC50 [2] was 2510 nM and the IC50 [3] was 158 nM. For the same compound, the IC50 [4] was 2510 nM.
`c1cc(-c2ccc3ccncc3c2)c2cc[nH]c2c1` gave an IC50 [1] of 15800 nM, an IC50 [2] of 15800 nM and an IC50 [3] of 3980 nM. The IC50 [4] was over 31600 nM.
`CS(=O)(=O)Nc1cc(-c2cnc(N)nc2)cnc1Cl` gave an IC50 [1] of 200 nM, an IC50 [2] of 158 nM and an IC50 [3] of 126 nM. It also gave an IC50 [4] of 1580 nM.
With `COc1ncc(C2=CCOCC2)cc1NS(=O)(=O)c1cn(Cc2ccccc2)c(C)n1` the Ratio IC50 (Homo sapiens [5]) was over 100, the Ratio IC50 (Homo sapiens [6]) was over 100 and the Ratio IC50 (Homo sapiens [7]) was over 100. The Ratio IC50 (Homo sapiens [8]) was over 100, the IC50 (PBMC) was 50.1 nM and the Ratio IC50 (Homo sapiens [9]) was over 100. It also gave a Ratio IC50 (Homo sapiens [10]) of over 100, a Ratio IC50 (Homo sapiens [11]) of over 100 and a Ratio IC50 (Homo sapiens [12]) of over 100. For the same compound, the Ratio IC50 (Homo sapiens [13]) was over 100, the Ratio IC50 (Homo sapiens [14]) was over 100 and the Ratio IC50 (Homo sapiens [15]) was over 100. For the same compound, the IC50 [1] was 1000 nM, the Ratio IC50 (Homo sapiens [16]) was over 100 and the IC50 [2] was 1000 nM. It also gave a Ratio IC50 (Homo sapiens [17]) of over 100, a Ratio IC50 (Homo sapiens [18]) of over 100 and a Ratio IC50 (Homo sapiens [19]) of over 100. For the same compound, the IC50 [3] was 6.31 nM, the Ratio IC50 (Homo sapiens [20]) was over 100 and the Ratio IC50 (Homo sapiens [21]) was over 100. For the same compound, the Ratio IC50 (Homo sapiens [22]) was over 100, the Ratio IC50 (Homo sapiens [23]) was over 100 and the IC50 [4] was 631 nM. For the same compound, the fraction unbound (serum albumin) was 0.101, the clearance [24] was 7.9 mL/min/g and the Ratio IC50 (Homo sapiens [25]) was over 100. The Ratio IC50 (Homo sapiens [26]) was over 100, the Ratio IC50 (Homo sapiens [27]) was over 100 and the Ratio IC50 (Homo sapiens [28]) was over 100. The Ratio IC50 (Homo sapiens [29]) was over 100, the Ratio IC50 (Homo sapiens [30]) was over 100 and the Ratio IC50 (Homo sapiens [31]) was over 100. The Ratio IC50 (Homo sapiens [32]) was over 100, the solubility kinetic at 1 h [33] was 12 µg/mL (≈ 27.2 µM) and the Ratio IC50 (Homo sapiens [34]) was over 100. The IC50 [35] was over 50100 nM, the Ratio IC50 (Homo sapiens [36]) was over 100 and the Ratio IC50 (Homo sapiens [37]) was over 100. It also gave a clearance [38] of 17.4 mL/min/g, a Ratio IC50 (Homo sapiens [39]) of over 100 and a Ratio IC50 (Homo sapiens [40]) of over 100.
